These results are taken from a melting point compilation (Tetko et al.; mined from patent text by program, amines drawn as free bases though some values may be those of a salt).

Molecules are shown by their SMILES.

By melting point is commonly meant the temperature, or range, at which the solid turns liquid. Compound `O=C(CNc1c(C(=O)O)[nH]c2cc(Cl)cc(Cl)c12)c1cccc(F)c1` displayed a melting point of 270 to 280 °C.

On to `COC(=O)c1cccc2nc(SCCCCCC(=O)Nc3c(SC)cc(C)nc3SC)oc12`, for which the melting point fell in the range of 141 to 142 °C.

In the case of `COCn1c(C)nc2c3c(c(C(=O)N(C)C)cc21)CCC(c1ccccc1)O3` (stereo not given), the melting point lay in the range of 213 to 215 °C.

As to `COC(=O)C(N)Cc1ccc(Oc2ccc(O)cc2)cc1` (stereo not given), the melting point lay within 123 to 124 °C.

Compound `COc1cscc1C(=O)NN` gave a melting point of 91 to 92 °C.

For `[N-]=[N+]=C1CCc2ccccc2C1=O`, the melting point was in the range of 50 to 52 °C.

With `Fc1ccc(OC2CCN(CCc3c[nH]c4ccccc34)CC2)cc1`, the melting point was 109 to 111 °C.

In the case of `Nc1ncnc2c1ncn2C1CC(O)C2CC21` (stereo not given), the melting point was 259 to 261 °C.

`CCC(CC)c1ccc(-c2ccco2)c2nc(Oc3ccc(Cl)cc3Br)n(C)c12` yielded a melting point of 159 to 162 °C.

Regarding `CC(C)(C)NC(=O)[C@@H]1[C@H](O)CCN1C(=O)[C@@H](O)[C@H](Cc1ccccc1)NC(=O)[C@H](CC(N)=O)NC(=O)OCc1ccccc1`, the melting point lay in the range of 109 to 112 °C.

As for `N[C@@H](Cc1ccccc1)C(c1ccccc1)c1ccccc1`, the melting point fell in the range of 71 to 72 °C.

In turn, `O=C(C=C(S)c1ccccc1)Nc1nc2ccccc2s1` gave a melting point of 168 to 172 °C.

Consider `CC(C)OC(=O)c1cc(-n2nc3ccc(Cl)cn3c2=O)c(F)cc1Cl`, for which the melting point was 120 to 123 °C.

The compound `COC(=O)c1cc(I)c(F)c(I)c1Cl` had a melting point of 155 °C.

With `COc1ccc(C2CCN(C(N)=O)CC2)cc1CC1CCCC1`, the melting point was in the range of 168 to 169 °C.

In the case of `Cc1nc(Br)c(C=O)n1Cc1cc2c(cc1Cl)OCO2`, the melting point was 141 °C.

Turning to `CCc1c(-c2ccc(OC)cc2)cn2ccc(OC)cc12`, the melting point was in the range of 101 to 103 °C.

The compound `CCOC(=O)Cc1ccc(N2Cc3ccccc3C2=N)cc1` gave a melting point of 204 to 206 °C.

In turn, `CC1(C)CCC(C)(C)c2cc(C(N)C(=O)Nc3ccc(C(=O)OCc4ccccc4)cc3)ccc21` (stereo not given) had a melting point of 196 to 197 °C.

The compound `COc1ccc(CNC(=O)Nc2ccc(CN3C(=O)[C@H]4CCC[C@H]4N(C(=O)CN4C(=O)c5ccccc5C4=O)c4ccccc43)cc2)cc1` (relative stereo) had a melting point of 156 to 158 °C.

For the compound `Cn1cncc1C(O)(c1ccc(Cl)cc1)c1ccc2c(c1)C(c1cccc(Cl)c1)n1nnnc1N2` (stereo not given), the melting point is > 260 °C.

In turn, `CC(C)Cn1c(CCCCNC(=O)OC(C)(C)C)nc2c(N)nc3ccccc3c21` came in with a melting point of 165 to 167 °C.

On to `COc1ccc(C=O)cc1-c1cccs1`, for which the melting point lay in the range of 137 to 138 °C.

Take `O=C(O)c1cn(C2CC2)c2c(OC(F)F)c(F)c(F)cc2c1=O`: the melting point is 202 to 207 °C.

The compound `CCC(CC)c1nn(-c2ccc(C(F)(F)F)cn2)cc1CCCOc1c(CC(=O)O)ccnc1C` showed a melting point of 78 to 79 °C.

Consider `Fc1ccc(N2CCN(Cc3cn4cc(C(F)(F)F)cc(Cl)c4n3)CC2)cc1`, for which the melting point was 91 to 97 °C.

Regarding `CC(Oc1ccc2c(c1)OCC(Cc1ccccn1)C2O)c1ccc2ccccc2n1` (stereo not given), the melting point was 73 °C.

In turn, `OCCc1ccc(OCCN2CCCCC2)cc1` had a melting point of 68 °C.

On to `CCOC(=O)c1cnc(N2CCN(Cc3ccccc3)CC2)nc1C(=O)OCC`, for which the melting point is 66 °C.

Regarding `Cc1c(O)cc2c(c1C)NCC2`, the melting point fell in the range of 164 to 167 °C.

For the compound `O=[N+]([O-])c1cccc2c1ncn2-c1cccc(Br)c1`, the melting point was in the range of 180 to 182 °C.

Compound `CCN1c2ncccc2C(=O)N(C)c2cccnc21` returned a melting point of 130 to 132 °C.

Take `COC1=C(OC)C(=O)c2c(cccc2S(=O)c2ccccc2)C1=O` (stereo not given): the melting point fell in the range of 165 to 167 °C.

On to `ClCCCCSCc1ccc2ccccc2c1`, for which the melting point was in the range of 47 to 49 °C.

In turn, `O=C(O)c1ccc2oc([N+](=O)[O-])c(-c3ccccc3)c2c1` registered a melting point of 271 to 273 °C.

For `CCOc1ccc(-c2nc(CCC(=O)c3ccccc3C#N)cs2)cc1OCC`, the melting point was in the range of 114 to 115 °C.

`CC(C)(C)c1cc(C=C2SCN(CC#N)C2=O)cc(C(C)(C)C)c1O` registered a melting point of 186 to 188 °C.

`COC(=O)C(=O)c1cc2ccccc2n1S(=O)(=O)c1ccccc1` yielded a melting point of 111 to 112 °C.

Regarding `N=c1[nH]c2ccc(Cl)cc2c2ncnn12`, the melting point fell in the range of 279 to 280 °C.

`CCC1Oc2cc(C(=O)OC)ccc2NC1=O` (stereo not given) came in with a melting point of 132 to 134 °C.

`C[C@](O)(COc1ccc(Cl)cc1)C(=O)Nc1ccc(C#N)c(C(F)(F)F)c1` registered a melting point of 146 to 148 °C.

For the compound `CC(C)C1C(=O)OC(=O)N1c1ccc(Cl)cc1` (stereo not given), the melting point lay in the range of 137 to 138 °C.

The compound `Cc1ccc(-c2c(N)oc3c(C(C)(C)C)cc(C(C)(C)C)cc23)cc1C` came in with a melting point of 128 to 130 °C.

`CCOc1ccc2cccnc2c1N` returned a melting point of 94 to 95 °C.

Regarding `Cc1ccc(-c2ccc3c(c2)C=C(C(=O)Nc2ccc(CN(C)C4CCOCC4)cc2)CCN3C=O)cc1`, the melting point is 229 to 230 °C.

Take `N#Cc1ccc(C(=O)N2CCN(c3ccncc3)CC2)cc1`: the melting point lay within 164 to 165 °C.

In the case of `COc1ccc(C2=C(c3ccc(S(C)(=O)=O)cc3)CCC2)cc1F`, the melting point was 128 to 129 °C.

Compound `CC#Cc1ncn2c1CN(C)C(=O)c1c(Cl)cccc1-2` had a melting point of 243 to 244 °C.

`O=C(NCCO)/C(=C/c1ccc(OCC(F)F)cc1)NC(=O)c1ccc(OCCCC2CC2)cc1` displayed a melting point of 149 to 151 °C.

For `NC(=O)CN1CCC(C(=O)N2CCN3C(=O)OC(c4ccccc4)(c4ccccc4)C3C2)CC1` (stereo not given), the melting point was in the range of 253 to 255 °C.

On to `Nc1ncnc2c1c(Cl)cn2COC(O)CCO` (stereo not given), for which the melting point was in the range of 175 to 176 °C.

`O=C(CCCCl)c1ccc2oc3ccc(C(=O)CCCCl)cc3c2c1` yielded a melting point of 102 to 104 °C.

Compound `CCN(CC)C(=O)N1CCN(c2nc(-c3ccccc3)cs2)CC1` had a melting point of 76 to 77 °C.

On to `O=c1oc(Cc2ccc(Oc3ccccc3)cc2)nn1-c1ccccc1Cl`, for which the melting point was found to be 85 °C.

As to `CC=CC(=O)C1=C(C)C(=O)CCC1(C)C`, the melting point lay in the range of 68 to 69 °C.

Regarding `CCCCCC(CC(=O)Nc1cc(C(N)=O)ccc1C(C)(C)C)c1cc(OC)c(OC)cc1OC` (stereo not given), the melting point lay in the range of 166 to 167 °C.

`COc1ccccc1N1CCN(Cc2c[nH]c3ccccc23)CC1` had a melting point of 188 to 190 °C.

With `O=C(O)c1cc([N+](=O)[O-])c(Nc2ccccc2)c(S(=O)(=O)Nc2ccccc2)c1`, the melting point lay in the range of 249 to 250 °C.

Compound `CCCCNC(=O)NS(=O)(=O)c1ccc(CCNC(=O)N2Cc3ccccc3C2=O)cc1` had a melting point of 188 to 190 °C.

For `O=C1c2ccccc2C(O)(c2ccccc2)N1CCc1ccc(O)cc1` (stereo not given), the melting point stood at 188 °C.

In turn, `CCc1cccc(NC(=O)c2ccn3c2CSC3c2cccnc2)n1` (stereo not given) gave a melting point of 150 °C.

In turn, `Cc1cc(Br)c(NC(=O)CBr)c(Br)n1` showed a melting point of 197 to 199 °C.

`Cc1cc(O)ccc1N1CCc2c(C)nc3ccccc3c21` displayed a melting point of 315 to 318 °C.

On to `O=C(O)c1cccc(C(=O)CCl)n1`, for which the melting point was 184 to 189 °C.

For the compound `OC1(c2ccccc2)CCN(CCC2COc3ccccc3O2)CC1` (stereo not given), the melting point stood at 142 °C.
